This is an account of results in PMC5909127, “Optimization of a “bump-and-hole” approach to allele-selective BET bromodomain inhibition” (Chemical Science, 2018).

By pIC50 is commonly meant the negative decadic logarithm of the IC50, by convention in mol/L. The low end stands for a large IC50, the high end for a small IC50. What is called CC50 is the concentration giving 50% cytotoxicity. A high value points to better tolerance by the cells.

pIC50: −log10 of the molar value.

One series deals with BRD2 BD2 L/V (Homo sapiens, UniProt P25440, L383V). The series is described as follows: competitive AlphaLISA. Type of series: binding. On the technique in general: Alpha assays give light when donor and acceptor beads are brought close together.
A further series has as its target BRD2 BD1 WT (Homo sapiens, UniProt P25440). As to the kind of experiment: competitive AlphaLISA. Type of series: binding.
In the next series the target is BRD2 BD1 L/V (Homo sapiens, UniProt P25440, L110V). The series is described as follows: competitive AlphaLISA. Type of series: binding.
For another series, the target named is BRDT BD1 WT (Homo sapiens, UniProt Q58F21). The series is described as follows: competitive AlphaLISA. Type of series: binding.
A further series concerns the target BRD4 BD2 L/V (Homo sapiens, UniProt O60885, L387V). The series is described as follows: competitive AlphaLISA. Type of series: binding.
In series [1] the test system is L/V BET bromodomains (BD1 and BD2 of BRD2, BRD3 and BRD4). As to the kind of experiment: competitive AlphaLISA (Bio-JQ1 displacement). Type of series: binding, human.
The target in series [2] is WT somatic BET bromodomains. As to the kind of experiment: ITC. The conditions noted are these: mean and SD of all somatic bromodomains.
The test system of a further series is Cl- channel (GABA-gated). The series is described as follows: CEREP ExpresSProfile. Type of series: binding. The conditions noted are these: 1 µM.
Series [3] has as its target GFP-labelled WT BRD4 in U2OS cells (Homo sapiens, UniProt O60885). As to the kind of experiment: FRAP. The conditions noted are these: 200 nM, 2 μM SAHA.
In a further series the target is NK2 (h) (Homo sapiens, UniProt P21452). The series is described as follows: CEREP ExpresSProfile. The settings on record: read-out: Mean % of control specific binding (±SD).
For another series, the target named is M3 (h) (Homo sapiens, UniProt P20309). The series is described as follows: CEREP ExpresSProfile. The settings on record: read-out: Mean % of control specific binding (±SD).
Another series has as its target NK3 (h) (Homo sapiens, UniProt P29371). As to the kind of experiment: CEREP ExpresSProfile. The settings on record: read-out: Mean % of control specific binding (±SD).
The target in the next series is PKA (Homo sapiens, UniProt P17612). As to the kind of experiment: kinase Express Screen. Type of series: biochemical. How it is done:
(§1) Kinase Remaining activity
(§2) Table S9. 9-ME-1 Kinase Screen
(§3) Activity of panel of human kinases following treatment with 1 µM (2R, 3S)-7. Dundee MRC-PPU Express Screen
(§4) (http://www.kinase-screen.mrc.ac.uk/services/express-screen)

A further series deals with PKBa (Homo sapiens, UniProt P31749). The series is described as follows: kinase Express Screen. Type of series: biochemical. As to the method: as §1, §2, §3, §4
Another series has as its target LKB1 (Homo sapiens, UniProt Q15831). As to the kind of experiment: kinase Express Screen. Type of series: biochemical. As to the method:
as §1, §2, §3, §4

For another series, the target named is TTK (Homo sapiens, UniProt P33981). As to the kind of experiment: kinase Express Screen. Type of series: biochemical. As to the method: as §1, §2, §3, §4
In a further series the target is SmMLCK (Homo sapiens, UniProt Q15746). The series is described as follows: kinase Express Screen. Type of series: biochemical. How it is done: as §1, §2, §3, §4
A further series has as its target GSK3b (Homo sapiens, UniProt P49841). The series is described as follows: kinase Express Screen. Type of series: biochemical. How it is done: as §1, §2, §3, §4
The target in another series is RIPK2 (Homo sapiens, UniProt O43353). As to the kind of experiment: kinase Express Screen. Type of series: biochemical. As to the method: as §1, §2, §3, §4
A further series concerns the target IGF-1R (Homo sapiens, UniProt P08069). As to the kind of experiment: kinase Express Screen. Type of series: biochemical. How it is done:
as §1, §2, §3, §4

The next series concerns the target ROCK 2 (Homo sapiens, UniProt O75116). The series is described as follows: kinase Express Screen. Type of series: biochemical. How it is done: as §1, §2, §3, §4
Another series concerns the target CHK2 (Homo sapiens, UniProt O96017). The series is described as follows: kinase Express Screen. Type of series: biochemical. How it is done:
as §1, §2, §3, §4

Another series addresses SRPK1 (Homo sapiens, UniProt Q96SB4). The series is described as follows: kinase Express Screen. Type of series: biochemical. As to the method:
as §1, §2, §3, §4

The next series has as its target EF2K (Homo sapiens, UniProt O00418). The series is described as follows: kinase Express Screen. Type of series: biochemical. How it is done: as §1, §2, §3, §4
The next series addresses MSK1 (Homo sapiens, UniProt O75582). The series is described as follows: kinase Express Screen. Type of series: biochemical. As to the method: as §1, §2, §3, §4
Another series addresses CAMKKb (Homo sapiens, UniProt Q96RR4). As to the kind of experiment: kinase Express Screen. Type of series: biochemical. How it is done:
as §1, §2, §3, §4

The next series addresses TAK1 (Homo sapiens, UniProt O43318). As to the kind of experiment: kinase Express Screen. Type of series: biochemical. As to the method: as §1, §2, §3, §4
Another series concerns the target HIPK2 (Homo sapiens, UniProt Q9H2X6). The series is described as follows: kinase Express Screen. Type of series: biochemical. How it is done:
as §1, §2, §3, §4

Another series concerns the target BTK (Homo sapiens, UniProt Q06187). The series is described as follows: kinase Express Screen. Type of series: biochemical. How it is done:
as §1, §2, §3, §4

In a further series the target is NEK6 (Homo sapiens, UniProt Q9HC98). The series is described as follows: kinase Express Screen. Type of series: biochemical. As to the method: as §1, §2, §3, §4
A further series deals with Lck (Homo sapiens, UniProt P06239). As to the kind of experiment: kinase Express Screen. Type of series: biochemical. How it is done:
as §1, §2, §3, §4

In another series the target is PKD1 (Homo sapiens, UniProt Q15139). The series is described as follows: kinase Express Screen. Type of series: biochemical. As to the method:
as §1, §2, §3, §4

The target of another series is TBK1 (Homo sapiens, UniProt Q9UHD2). As to the kind of experiment: kinase Express Screen. Type of series: biochemical. As to the method:
as §1, §2, §3, §4

Another series addresses SGK1 (Homo sapiens, UniProt O00141). The series is described as follows: kinase Express Screen. Type of series: biochemical. As to the method: as §1, §2, §3, §4
For the next series, the target named is SYK (Homo sapiens, UniProt P43405). The series is described as follows: kinase Express Screen. Type of series: biochemical. As to the method: as §1, §2, §3, §4
In another series the target is JAK3 (Homo sapiens, UniProt P52333). As to the kind of experiment: kinase Express Screen. Type of series: biochemical. How it is done:
as §1, §2, §3, §4

The next series concerns the target EPH-A2 (Homo sapiens, UniProt P29317). As to the kind of experiment: kinase Express Screen. Type of series: biochemical. How it is done:
as §1, §2, §3, §4

A further series has as its target kappa (KOP) (Rattus norvegicus, UniProt P34975). The series is described as follows: CEREP ExpresSProfile. The settings on record: read-out: Mean % of control specific binding (±SD).
For a further series, the target named is 5-HT6 (h) (Homo sapiens, UniProt P50406). The series is described as follows: CEREP ExpresSProfile. The settings on record: read-out: Mean % of control specific binding (±SD).
In the next series the test system is sst (non-selective). As to the kind of experiment: CEREP ExpresSProfile. Type of series: binding. The conditions noted are these: 1 µM.
The nature of series [4]: WT Cell Cytotoxicity (CellTiter-Glo). The conditions noted are these: human, HL-60 cells (BET-dependent AML cell line). A general note: Cellular ATP, detected with luciferase, serves as a proxy for viable cell number.
Another series has as its system Na+ channel (site 2). The series is described as follows: CEREP ExpresSProfile. Type of series: binding. The settings on record: 1 µM.
A further series deals with KV channel. The series is described as follows: CEREP ExpresSProfile. Type of series: binding. The conditions noted are these: 1 µM.

Chain of MSK1 (O75582 whole entry): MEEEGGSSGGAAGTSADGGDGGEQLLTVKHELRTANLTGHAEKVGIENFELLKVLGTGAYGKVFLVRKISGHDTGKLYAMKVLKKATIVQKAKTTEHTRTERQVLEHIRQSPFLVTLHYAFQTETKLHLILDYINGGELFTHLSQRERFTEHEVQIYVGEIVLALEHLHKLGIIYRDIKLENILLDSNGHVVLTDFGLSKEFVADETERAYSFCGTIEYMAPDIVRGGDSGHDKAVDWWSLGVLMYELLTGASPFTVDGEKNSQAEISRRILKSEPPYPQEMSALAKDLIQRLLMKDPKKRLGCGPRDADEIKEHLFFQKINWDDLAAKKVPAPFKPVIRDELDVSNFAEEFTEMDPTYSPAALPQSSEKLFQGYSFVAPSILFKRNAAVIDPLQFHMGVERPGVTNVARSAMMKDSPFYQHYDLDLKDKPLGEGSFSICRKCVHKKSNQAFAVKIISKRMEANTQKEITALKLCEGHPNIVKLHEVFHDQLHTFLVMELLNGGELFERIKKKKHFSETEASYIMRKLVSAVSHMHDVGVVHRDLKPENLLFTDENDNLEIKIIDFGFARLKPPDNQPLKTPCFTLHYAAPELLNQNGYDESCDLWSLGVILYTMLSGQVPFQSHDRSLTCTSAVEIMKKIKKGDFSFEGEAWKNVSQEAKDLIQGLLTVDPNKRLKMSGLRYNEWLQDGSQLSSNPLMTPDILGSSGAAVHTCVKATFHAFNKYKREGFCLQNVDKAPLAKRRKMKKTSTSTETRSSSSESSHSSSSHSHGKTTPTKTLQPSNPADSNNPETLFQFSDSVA
Chain of TBK1 (Q9UHD2 whole entry): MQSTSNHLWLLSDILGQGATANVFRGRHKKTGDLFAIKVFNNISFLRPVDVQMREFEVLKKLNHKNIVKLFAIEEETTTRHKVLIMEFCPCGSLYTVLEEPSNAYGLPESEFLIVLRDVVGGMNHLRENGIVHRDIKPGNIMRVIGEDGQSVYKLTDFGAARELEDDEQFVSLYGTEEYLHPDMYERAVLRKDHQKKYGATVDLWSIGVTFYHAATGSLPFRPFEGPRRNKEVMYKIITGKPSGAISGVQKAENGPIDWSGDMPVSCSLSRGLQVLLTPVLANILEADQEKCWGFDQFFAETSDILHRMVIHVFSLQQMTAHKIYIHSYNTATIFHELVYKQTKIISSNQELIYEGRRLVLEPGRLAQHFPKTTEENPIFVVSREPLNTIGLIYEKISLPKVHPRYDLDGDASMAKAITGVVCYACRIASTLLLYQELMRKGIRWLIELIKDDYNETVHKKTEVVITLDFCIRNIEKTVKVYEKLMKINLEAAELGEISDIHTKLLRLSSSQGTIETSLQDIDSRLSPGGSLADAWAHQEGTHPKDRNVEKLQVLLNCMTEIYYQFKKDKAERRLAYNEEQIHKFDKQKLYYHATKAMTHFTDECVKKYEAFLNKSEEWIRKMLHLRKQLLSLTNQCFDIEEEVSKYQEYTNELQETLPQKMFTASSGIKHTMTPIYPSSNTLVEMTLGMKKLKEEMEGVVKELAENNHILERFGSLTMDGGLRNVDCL
Chain of kappa (KOP) (P34975 whole entry): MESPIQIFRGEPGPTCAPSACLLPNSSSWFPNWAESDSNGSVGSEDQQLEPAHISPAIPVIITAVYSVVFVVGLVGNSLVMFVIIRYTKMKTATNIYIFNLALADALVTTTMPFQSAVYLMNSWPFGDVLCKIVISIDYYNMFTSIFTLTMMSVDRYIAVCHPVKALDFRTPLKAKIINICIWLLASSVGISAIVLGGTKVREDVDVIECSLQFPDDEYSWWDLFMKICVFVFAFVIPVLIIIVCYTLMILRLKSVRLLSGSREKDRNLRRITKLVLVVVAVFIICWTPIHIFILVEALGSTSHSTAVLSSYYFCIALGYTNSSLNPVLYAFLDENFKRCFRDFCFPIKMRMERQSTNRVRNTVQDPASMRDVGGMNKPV
Chain of BRD2 BD1 WT (P25440 71-176): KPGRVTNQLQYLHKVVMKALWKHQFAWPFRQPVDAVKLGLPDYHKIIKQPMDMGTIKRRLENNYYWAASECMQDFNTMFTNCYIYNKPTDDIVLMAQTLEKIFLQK
Chain of ROCK 2 (O75116 whole entry): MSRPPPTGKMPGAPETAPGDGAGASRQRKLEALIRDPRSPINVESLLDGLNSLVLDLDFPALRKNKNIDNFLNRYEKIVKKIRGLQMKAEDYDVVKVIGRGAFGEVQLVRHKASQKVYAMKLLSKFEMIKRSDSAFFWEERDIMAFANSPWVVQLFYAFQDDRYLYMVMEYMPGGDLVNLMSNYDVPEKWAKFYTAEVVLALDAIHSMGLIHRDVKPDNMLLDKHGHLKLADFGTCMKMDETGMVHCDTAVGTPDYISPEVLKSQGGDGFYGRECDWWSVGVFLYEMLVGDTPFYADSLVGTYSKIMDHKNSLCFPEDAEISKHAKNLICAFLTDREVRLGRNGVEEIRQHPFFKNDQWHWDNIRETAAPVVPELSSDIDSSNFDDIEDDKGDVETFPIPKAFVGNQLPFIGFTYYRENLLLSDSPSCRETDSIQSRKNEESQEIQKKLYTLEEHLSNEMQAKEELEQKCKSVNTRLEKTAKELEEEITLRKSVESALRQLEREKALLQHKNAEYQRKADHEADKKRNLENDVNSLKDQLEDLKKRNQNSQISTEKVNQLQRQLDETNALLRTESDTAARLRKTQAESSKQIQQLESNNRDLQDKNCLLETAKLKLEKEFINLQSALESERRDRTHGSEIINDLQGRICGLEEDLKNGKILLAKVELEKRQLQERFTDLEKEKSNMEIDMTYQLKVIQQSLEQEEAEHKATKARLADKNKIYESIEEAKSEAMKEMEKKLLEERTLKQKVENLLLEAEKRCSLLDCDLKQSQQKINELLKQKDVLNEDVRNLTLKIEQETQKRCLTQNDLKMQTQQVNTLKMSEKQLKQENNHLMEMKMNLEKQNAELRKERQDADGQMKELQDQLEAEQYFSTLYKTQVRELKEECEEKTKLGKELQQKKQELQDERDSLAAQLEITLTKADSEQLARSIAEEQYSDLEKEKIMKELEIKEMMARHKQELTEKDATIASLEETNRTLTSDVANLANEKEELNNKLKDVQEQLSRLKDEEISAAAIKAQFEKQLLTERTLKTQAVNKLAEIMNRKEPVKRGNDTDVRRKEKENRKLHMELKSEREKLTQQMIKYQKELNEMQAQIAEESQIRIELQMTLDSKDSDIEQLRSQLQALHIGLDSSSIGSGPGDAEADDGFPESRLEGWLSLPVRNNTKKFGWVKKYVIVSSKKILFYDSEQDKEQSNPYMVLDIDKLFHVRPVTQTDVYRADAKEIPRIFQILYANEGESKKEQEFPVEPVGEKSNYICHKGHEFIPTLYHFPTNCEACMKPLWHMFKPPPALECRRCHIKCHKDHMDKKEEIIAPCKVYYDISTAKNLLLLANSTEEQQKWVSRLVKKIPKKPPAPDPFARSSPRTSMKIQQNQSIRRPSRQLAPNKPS
Chain of PKBa (P31749 whole entry): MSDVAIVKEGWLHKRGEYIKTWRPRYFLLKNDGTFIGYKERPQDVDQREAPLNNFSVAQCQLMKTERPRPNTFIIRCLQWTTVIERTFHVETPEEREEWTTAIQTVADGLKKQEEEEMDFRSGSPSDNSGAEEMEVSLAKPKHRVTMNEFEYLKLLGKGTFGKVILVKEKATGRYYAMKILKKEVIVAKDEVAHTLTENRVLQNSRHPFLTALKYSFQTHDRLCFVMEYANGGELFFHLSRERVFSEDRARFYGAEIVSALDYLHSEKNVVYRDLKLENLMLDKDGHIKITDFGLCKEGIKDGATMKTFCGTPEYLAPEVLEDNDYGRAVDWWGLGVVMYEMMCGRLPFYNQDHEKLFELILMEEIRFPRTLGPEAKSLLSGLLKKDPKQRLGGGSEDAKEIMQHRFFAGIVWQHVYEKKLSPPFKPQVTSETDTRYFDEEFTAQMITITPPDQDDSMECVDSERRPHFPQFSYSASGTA
Chain of NEK6 (Q9HC98 whole entry): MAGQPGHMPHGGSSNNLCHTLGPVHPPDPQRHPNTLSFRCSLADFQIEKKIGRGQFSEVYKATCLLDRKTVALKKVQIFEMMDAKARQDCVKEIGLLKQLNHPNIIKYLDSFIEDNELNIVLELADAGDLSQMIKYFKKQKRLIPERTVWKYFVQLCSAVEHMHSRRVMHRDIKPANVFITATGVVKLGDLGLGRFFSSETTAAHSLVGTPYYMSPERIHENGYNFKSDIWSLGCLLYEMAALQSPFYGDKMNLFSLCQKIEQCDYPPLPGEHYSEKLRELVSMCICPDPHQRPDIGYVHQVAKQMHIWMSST
Chain of BRD2 BD1 L/V (P25440 71-176 L110V limits assumed): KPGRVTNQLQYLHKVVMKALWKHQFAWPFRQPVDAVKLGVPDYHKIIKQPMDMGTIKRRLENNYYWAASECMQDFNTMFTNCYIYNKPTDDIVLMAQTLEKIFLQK
Chain of Lck (P06239 whole entry): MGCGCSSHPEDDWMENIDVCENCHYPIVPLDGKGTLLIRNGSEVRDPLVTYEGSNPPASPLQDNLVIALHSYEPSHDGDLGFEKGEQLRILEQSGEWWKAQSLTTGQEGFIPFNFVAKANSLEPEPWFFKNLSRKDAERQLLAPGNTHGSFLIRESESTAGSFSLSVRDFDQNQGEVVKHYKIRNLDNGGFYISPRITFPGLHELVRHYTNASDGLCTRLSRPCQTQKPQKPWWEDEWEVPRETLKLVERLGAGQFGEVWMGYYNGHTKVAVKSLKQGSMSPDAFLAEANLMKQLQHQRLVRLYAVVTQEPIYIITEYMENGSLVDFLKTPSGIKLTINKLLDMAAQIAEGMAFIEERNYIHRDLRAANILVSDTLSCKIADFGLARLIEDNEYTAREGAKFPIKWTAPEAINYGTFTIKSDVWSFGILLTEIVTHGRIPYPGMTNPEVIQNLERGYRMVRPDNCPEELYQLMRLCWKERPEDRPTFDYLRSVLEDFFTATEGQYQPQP
Chain of BRD2 BD2 L/V (P25440 344-455 L383V): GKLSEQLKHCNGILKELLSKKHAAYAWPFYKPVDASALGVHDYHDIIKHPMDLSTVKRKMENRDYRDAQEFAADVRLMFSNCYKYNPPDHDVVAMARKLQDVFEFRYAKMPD
Description for KV channel: (§5) Receptor Reference Compound Mean % of control specific
Receptor & Ion-Channel Screening
CEREP ExpresSProfile panel
Description for NK3 (h): as §5
Receptor & Ion-Channel Screening
CEREP ExpresSProfile panel
Description for kappa (KOP): as §5
Receptor & Ion-Channel Screening
CEREP ExpresSProfile panel

Consider `CC[C@@H](C(=O)OC)[C@@H]1N=C(c2ccc(Cl)cc2)c2ccc(OC)cc2-n2c(C)nnc21` (racemic) [Compound 8], for which the negative-log IC50 (pIC50) was 6.70 on BRD2 BD2 L/V; 5.00 at BRD2 BD1 WT; 6.50 at BRD2 BD1 L/V; 4.80 on BRDT BD1 WT; 6.70 on BRD4 BD2 L/V. The “AlphaLISA pIC50 ± SD Δ” value in series [1] (L/V minus WT) is 1.4 ± 0.2. Besides, in series [1] (mean and SD of all somatic bromodomains, active enantiomer concentration), the “AlphaLISA pIC50 ± SD L/V” value came out at 6.8 ± 0.2. The “ITC pKd ± SD WT” value in series [2] is under 4.2.

As to `COC(=O)[C@H](C)[C@@H]1N=C(c2ccc(Cl)cc2)c2ccc(OC)cc2-n2c(C)nnc21` [(2R,3S)-7], the “Mean % of control specific binding (±SD)” value is given as 98 (4) % with Cl- channel (GABA-gated), 108 (6) % in the series with sst (non-selective), 105 (6) % in the series with Na+ channel (site 2) and 100 (0) % in the series on KV channel. For the same compound, in series [3], the “blockade of WT BRD4 (FRAP)” value was “no statistically significant blockade”. Besides, the remaining activity at 1 µM amounted to 101% on NK2 (h); 101% on M3 (h); 99% at NK3 (h); 92% at PKA; 95% at PKBa; 91% on LKB1. In addition, the remaining activity at 1 µM worked out at 102% at TTK; 112% at SmMLCK; 95% at GSK3b; 103% on RIPK2; 93% on IGF-1R; 88% on ROCK 2. The remaining activity at 1 µM worked out at 107% on CHK2; 79% at SRPK1; 97% on EF2K; 94% on MSK1; 101% at CAMKKb; 108% at TAK1. Further, the remaining activity at 1 µM at HIPK2 was found to be 99%; at BTK it was 96%; at NEK6 it was 109%; on Lck, 86%; at PKD1, 78%; at TBK1, 98%. The remaining activity at 1 µM at SGK1 worked out at 103%; at SYK, 98%; at JAK3, 95%; on EPH-A2 it was 86%; on kappa (KOP) it was 96%; at 5-HT6 (h) it was 112%. In [4], the CC50 at 48 h is over 5.01 µM.
